# Reference: ChEMBL document CHEMBL4706552, “Discovery of 4-methyl-N-(4-((4-methylpiperazin- 1-yl)methyl)-3-(trifluoromethyl)phenyl)-3-((6-(pyridin-3-yl)-1H-pyrazolo[3,4-d]pyrimidin-4-yl)-oxy)benzamide as a potent inhibitor of RET and its gatekeeper mutant” (Eur J Med Chem, 2020)
# Biological target: T1, Kinesin-1 heavy chain/ Tyrosine-protein kinase receptor RET (Homo sapiens) (UniProt P07949+P33176)
# Experiment: Inhibition of KIF5B-RET fusion protein (unknown origin) expressed in mouse BaF3 cells assessed as reduction in cell proliferation measured after 48 hrs by MTS assay
# Assay type: cell-based
# T1 sequence (P07949 29-1114 limits assumed): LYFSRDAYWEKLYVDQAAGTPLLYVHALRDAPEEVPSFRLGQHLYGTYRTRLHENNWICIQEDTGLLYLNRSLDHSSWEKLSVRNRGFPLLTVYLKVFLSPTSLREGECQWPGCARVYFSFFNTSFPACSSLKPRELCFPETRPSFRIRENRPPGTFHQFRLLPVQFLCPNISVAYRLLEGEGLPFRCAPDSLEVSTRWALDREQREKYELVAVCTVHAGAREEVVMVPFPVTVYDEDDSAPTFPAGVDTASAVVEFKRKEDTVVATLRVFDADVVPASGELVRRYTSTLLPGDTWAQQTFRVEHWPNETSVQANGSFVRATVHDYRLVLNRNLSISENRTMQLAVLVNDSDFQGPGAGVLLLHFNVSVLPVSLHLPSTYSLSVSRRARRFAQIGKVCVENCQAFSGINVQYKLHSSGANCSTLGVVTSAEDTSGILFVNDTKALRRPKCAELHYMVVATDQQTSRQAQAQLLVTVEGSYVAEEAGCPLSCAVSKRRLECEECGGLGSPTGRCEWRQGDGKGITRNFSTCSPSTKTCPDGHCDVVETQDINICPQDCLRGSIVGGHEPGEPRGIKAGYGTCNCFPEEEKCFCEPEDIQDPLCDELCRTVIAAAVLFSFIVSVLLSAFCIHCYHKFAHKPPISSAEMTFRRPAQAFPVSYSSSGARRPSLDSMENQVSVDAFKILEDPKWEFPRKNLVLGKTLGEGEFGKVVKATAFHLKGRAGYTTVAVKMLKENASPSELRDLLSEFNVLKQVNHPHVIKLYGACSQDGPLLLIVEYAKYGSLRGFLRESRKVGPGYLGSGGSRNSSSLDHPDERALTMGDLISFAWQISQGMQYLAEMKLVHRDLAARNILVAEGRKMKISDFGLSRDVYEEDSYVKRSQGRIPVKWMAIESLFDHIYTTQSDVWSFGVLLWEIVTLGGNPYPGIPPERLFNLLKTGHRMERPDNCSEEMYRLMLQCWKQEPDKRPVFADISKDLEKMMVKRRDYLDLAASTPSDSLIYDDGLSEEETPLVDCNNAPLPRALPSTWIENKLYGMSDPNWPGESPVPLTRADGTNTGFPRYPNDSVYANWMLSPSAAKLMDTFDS
# T1 sequence (P33176 2-963 partner limits assumed): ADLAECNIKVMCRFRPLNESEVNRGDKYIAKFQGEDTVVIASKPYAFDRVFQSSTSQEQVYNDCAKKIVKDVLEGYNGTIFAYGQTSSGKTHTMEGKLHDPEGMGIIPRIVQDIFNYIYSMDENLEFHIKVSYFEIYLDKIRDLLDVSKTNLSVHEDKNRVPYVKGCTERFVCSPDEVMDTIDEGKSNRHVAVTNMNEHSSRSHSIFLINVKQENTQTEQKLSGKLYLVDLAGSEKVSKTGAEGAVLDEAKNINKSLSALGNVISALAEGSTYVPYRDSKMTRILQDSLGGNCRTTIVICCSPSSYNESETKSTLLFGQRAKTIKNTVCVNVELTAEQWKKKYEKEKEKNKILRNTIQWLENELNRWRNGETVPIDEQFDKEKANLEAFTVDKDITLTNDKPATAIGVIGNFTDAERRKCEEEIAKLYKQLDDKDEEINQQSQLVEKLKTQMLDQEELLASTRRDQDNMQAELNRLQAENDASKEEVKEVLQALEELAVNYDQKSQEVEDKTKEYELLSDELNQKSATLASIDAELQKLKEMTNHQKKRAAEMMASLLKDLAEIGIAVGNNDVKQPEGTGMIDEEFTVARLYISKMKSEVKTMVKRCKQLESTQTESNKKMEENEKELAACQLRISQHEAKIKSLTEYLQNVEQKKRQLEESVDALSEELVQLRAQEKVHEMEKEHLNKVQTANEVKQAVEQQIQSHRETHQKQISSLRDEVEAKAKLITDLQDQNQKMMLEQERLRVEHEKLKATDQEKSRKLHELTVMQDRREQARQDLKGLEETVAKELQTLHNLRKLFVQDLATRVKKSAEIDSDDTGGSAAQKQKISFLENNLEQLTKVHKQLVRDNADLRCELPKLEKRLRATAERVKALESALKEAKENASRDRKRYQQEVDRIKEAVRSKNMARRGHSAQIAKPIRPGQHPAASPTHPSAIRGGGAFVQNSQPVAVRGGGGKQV
row,Compound,GI50 [µM]
1,CN1CCN(Cc2ccc(C(=O)Nc3cccc(Oc4nc(-c5ccncc5)nc5c4cnn5C)c3)cc2C(F)(F)F)CC1,0.106
2,Cc1ccc(Oc2nc(-c3ccncc3)nc3c2cnn3C)cc1C(=O)Nc1ccc(CN2CCN(C)CC2)c(C(F)(F)F)c1,0.44
3,Cc1ccc(C(=O)Nc2ccc(CN3CCN(C)CC3)c(C(F)(F)F)c2)cc1Oc1nc(Nc2ccccc2)nc2c1cnn2C,0.07
4,Cc1cn(-c2cc(NC(=O)c3ccc(C)c(Oc4nc(-c5ccncc5)nc5c4cnn5C)c3)cc(C(F)(F)F)c2)cn1,2.62
5,Cc1ccc(Oc2nc(-c3cccnc3)nc3c2cnn3C)cc1NC(=O)c1ccc(CN2CCN(C)CC2)c(C(F)(F)F)c1,4.42
6,Cc1ccc(C(=O)Nc2ccc(CN3CCN(C)CC3)c(C(F)(F)F)c2)cc1Oc1nc(-c2ccc(O)cc2)nc2c1cnn2C,0.057
7,Cc1ccc(C(=O)Nc2cccc(C(F)(F)F)c2)cc1Oc1nc(-c2cccnc2)nc2c1cnn2C,2.24
8,Cc1ccc(NC(=O)c2ccc(CN3CCN(C)CC3)c(C(F)(F)F)c2)cc1Oc1nc(-c2ccncc2)nc2c1cnn2C,0.469
9,CN1CCN(Cc2ccc(NC(=O)c3cc(Oc4nc(-c5cccnc5)nc5c4cnn5C)ccc3Cl)cc2C(F)(F)F)CC1,4.02
10,Cc1ccc(NC(=O)c2ccc(CN3CCN(C)CC3)c(C(F)(F)F)c2)cc1Oc1nc(-c2cccnc2)nc2c1cnn2C,0.411
11,Cc1ccc(Oc2nc(-c3cccnc3)nc3[nH]ncc23)cc1NC(=O)c1ccc(CN2CCN(C)CC2)c(C(F)(F)F)c1,3.89
12,CN1CCN(Cc2ccc(C(=O)Nc3cc(Oc4nc(-c5cccnc5)nc5[nH]ncc45)ccc3Cl)cc2C(F)(F)F)CC1,1.35
13,CN1CCN(Cc2ccc(C(=O)Nc3cc(Oc4nc(-c5cccnc5)nc5c4cnn5C)ccc3Cl)cc2C(F)(F)F)CC1,1.39
14,Cc1ccc(C(=O)Nc2ccc(CN3CCN(C)CC3)c(C(F)(F)F)c2)cc1Oc1nc(-c2ccccc2)nc2c1cnn2C,0.098
15,CN1CCN(Cc2ccc(C(=O)Nc3cccc(Oc4nc(-c5ccncc5)nc5[nH]ncc45)c3)cc2C(F)(F)F)CC1,0.299
16,Cc1cn(-c2cc(NC(=O)c3ccc(C)c(Oc4nc(-c5cccnc5)nc5c4cnn5C)c3)cc(C(F)(F)F)c2)cn1,> 10
17,Cc1ccc(C(=O)Nc2ccc(CN3CCN(C)CC3)c(C(F)(F)F)c2)cc1Oc1nc(-c2ccncc2)nc2c1cnn2C(C)C,0.915

# Biological target: T2, Coiled-coil domain-containing protein 6/Tyrosine-protein kinase receptor RET (Homo sapiens) (UniProt P07949+Q16204)
# Experiment: Inhibition of CCDC6-RET fusion protein (unknown origin) expressed in mouse BaF3 cells assessed as cell survival at 2 uM measured after 48 hrs by MTS assay relative to control
# Assay type: cell-based
# T2 sequence (P07949 29-1114 limits assumed): as the sequence (P07949 29-1114 limits assumed) above
# T2 sequence (Q16204 2-474 partner limits assumed): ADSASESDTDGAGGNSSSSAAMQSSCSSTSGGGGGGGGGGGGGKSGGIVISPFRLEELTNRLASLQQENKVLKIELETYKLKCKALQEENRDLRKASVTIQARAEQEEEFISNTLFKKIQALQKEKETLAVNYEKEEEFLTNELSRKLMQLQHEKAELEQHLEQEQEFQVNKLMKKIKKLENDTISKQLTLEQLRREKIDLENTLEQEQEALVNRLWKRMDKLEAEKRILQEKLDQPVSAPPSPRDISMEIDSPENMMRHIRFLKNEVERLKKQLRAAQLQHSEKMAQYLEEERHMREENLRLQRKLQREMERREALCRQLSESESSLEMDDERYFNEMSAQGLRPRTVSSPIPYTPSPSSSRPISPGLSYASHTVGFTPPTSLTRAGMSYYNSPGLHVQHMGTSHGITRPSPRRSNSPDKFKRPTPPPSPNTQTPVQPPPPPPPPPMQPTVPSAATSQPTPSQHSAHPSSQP
row,Compound,Survival [%]
1,CN1CCN(Cc2ccc(NC(=O)c3cccc(Oc4nc(-c5cccnc5)nc5c4cnn5C)c3)cc2C(F)(F)F)CC1,65.5
2,Cc1ccc(Oc2nc(-c3cccnc3)nc3c2cnn3C)cc1C(=O)Nc1ccc(CN2CCN(C)CC2)c(C(F)(F)F)c1,100
3,CN1CCN(Cc2ccc(NC(=O)c3cccc(Oc4nc(-c5ccncc5)nc5c4cnn5C)c3)cc2C(F)(F)F)CC1,94.1

# Biological target: T2, Coiled-coil domain-containing protein 6/Tyrosine-protein kinase receptor RET (Homo sapiens)
# Experiment: Inhibition of CCDC6-RET fusion protein (unknown origin) expressed in mouse BaF3 cells assessed as reduction in cell proliferation measured after 48 hrs by MTS assay
# Assay type: cell-based
row,Compound,GI50 [µM]
1,CN1CCN(Cc2ccc(C(=O)Nc3cccc(Oc4nc(-c5ccncc5)nc5c4cnn5C)c3)cc2C(F)(F)F)CC1,0.14
2,Cc1ccc(Oc2nc(-c3ccncc3)nc3c2cnn3C)cc1C(=O)Nc1ccc(CN2CCN(C)CC2)c(C(F)(F)F)c1,1.52
3,Cc1ccc(C(=O)Nc2ccc(CN3CCN(C)CC3)c(C(F)(F)F)c2)cc1Oc1nc(Nc2ccccc2)nc2c1cnn2C,0.123
4,Cc1cn(-c2cc(NC(=O)c3ccc(C)c(Oc4nc(-c5ccncc5)nc5c4cnn5C)c3)cc(C(F)(F)F)c2)cn1,1.57
5,Cc1ccc(Oc2nc(-c3cccnc3)nc3c2cnn3C)cc1NC(=O)c1ccc(CN2CCN(C)CC2)c(C(F)(F)F)c1,4.17
6,Cc1ccc(C(=O)Nc2ccc(CN3CCN(C)CC3)c(C(F)(F)F)c2)cc1Oc1nc(-c2ccc(O)cc2)nc2c1cnn2C,0.166
7,Cc1ccc(C(=O)Nc2cccc(C(F)(F)F)c2)cc1Oc1nc(-c2cccnc2)nc2c1cnn2C,1.97
8,Cc1ccc(NC(=O)c2ccc(CN3CCN(C)CC3)c(C(F)(F)F)c2)cc1Oc1nc(-c2ccncc2)nc2c1cnn2C,0.617
9,CN1CCN(Cc2ccc(NC(=O)c3cc(Oc4nc(-c5cccnc5)nc5c4cnn5C)ccc3Cl)cc2C(F)(F)F)CC1,4.17
10,Cc1ccc(NC(=O)c2ccc(CN3CCN(C)CC3)c(C(F)(F)F)c2)cc1Oc1nc(-c2cccnc2)nc2c1cnn2C,0.477
11,Cc1ccc(Oc2nc(-c3cccnc3)nc3[nH]ncc23)cc1NC(=O)c1ccc(CN2CCN(C)CC2)c(C(F)(F)F)c1,2.37
12,CN1CCN(Cc2ccc(C(=O)Nc3cc(Oc4nc(-c5cccnc5)nc5[nH]ncc45)ccc3Cl)cc2C(F)(F)F)CC1,0.567
13,CN1CCN(Cc2ccc(C(=O)Nc3cc(Oc4nc(-c5cccnc5)nc5c4cnn5C)ccc3Cl)cc2C(F)(F)F)CC1,2.07
14,Cc1ccc(C(=O)Nc2ccc(CN3CCN(C)CC3)c(C(F)(F)F)c2)cc1Oc1nc(-c2ccccc2)nc2c1cnn2C,0.348
15,CN1CCN(Cc2ccc(C(=O)Nc3cccc(Oc4nc(-c5ccncc5)nc5[nH]ncc45)c3)cc2C(F)(F)F)CC1,0.079
16,Cc1cn(-c2cc(NC(=O)c3ccc(C)c(Oc4nc(-c5cccnc5)nc5c4cnn5C)c3)cc(C(F)(F)F)c2)cn1,> 10
17,Cc1ccc(C(=O)Nc2ccc(CN3CCN(C)CC3)c(C(F)(F)F)c2)cc1Oc1nc(-c2ccncc2)nc2c1cnn2C(C)C,1.1

# Biological target: T1, Kinesin-1 heavy chain/ Tyrosine-protein kinase receptor RET (Homo sapiens)
# Experiment: Inhibition of KIF5B-RET fusion protein (unknown origin) expressed in mouse BaF3 cells assessed as cell survival at 2 uM measured after 48 hrs by MTS assay relative to control
# Assay type: cell-based
row,Compound,Survival [%]
1,CN1CCN(Cc2ccc(NC(=O)c3cccc(Oc4nc(-c5cccnc5)nc5c4cnn5C)c3)cc2C(F)(F)F)CC1,56.5
2,Cc1ccc(Oc2nc(-c3cccnc3)nc3c2cnn3C)cc1C(=O)Nc1ccc(CN2CCN(C)CC2)c(C(F)(F)F)c1,87.5
3,CN1CCN(Cc2ccc(NC(=O)c3cccc(Oc4nc(-c5ccncc5)nc5c4cnn5C)c3)cc2C(F)(F)F)CC1,74.9
